Laboratory results as given in patent US10093630B2, “Pyrazole compounds and methods of making and using same” (ABIDE THERAPEUTICS, INC., priority 2014, dated 2018).

Tests used:
Test in all cases: In vitro competitive activity-based protein profiling (gel-based, FP-Rh or HT-01 probe)
Type in all cases: biochemical
MAGL = molecular target: T1, MAGL (Mus musculus, UniProt O35678); details: for inhibition at 1 µM: 1 μM inhibitor; for inhibition at 10 µM: 10 μM inhibitor; for IC50: mouse brain membrane fraction or cell lysates, 30 min preincubation at 37° C., read-out: Mouse (IC50 value, nM) MAGL
T1 construct: Proteomes (mouse brain membrane fraction or cell lysates); from tissue; host or cells: mouse brain membrane fraction (or cell lysates, not specified)
T1 sequence (O35678 1-303): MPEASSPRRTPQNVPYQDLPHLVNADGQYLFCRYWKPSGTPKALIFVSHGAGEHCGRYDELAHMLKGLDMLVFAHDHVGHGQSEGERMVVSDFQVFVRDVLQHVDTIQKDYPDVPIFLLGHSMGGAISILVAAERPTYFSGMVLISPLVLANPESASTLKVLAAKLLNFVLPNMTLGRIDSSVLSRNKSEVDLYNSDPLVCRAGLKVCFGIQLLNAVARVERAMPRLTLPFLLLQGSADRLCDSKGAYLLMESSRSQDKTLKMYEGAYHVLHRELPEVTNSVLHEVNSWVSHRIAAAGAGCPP
Summary of the method: (§1)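 Mouse brain membrane or cell lysate proteomes (1.0 mg/mL) preincubated with inhibitors 30 min at 37° C, then labelled with FP-Rh or HT-01 for 30 min at 37° C. After SDS-PAGE, activity quantified from fluorescent band intensity.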

PLA2G7 = molecular target: T2, PLA2G7 (Mus musculus, UniProt Q60963); details: for inhibition at 1 µM: 1 μM inhibitor, read-out: % Inhibition at 1 μM, D = PLA2G7; for inhibition at 10 µM: 10 μM inhibitor, read-out: % Inhibition at 10 μM, D = PLA2G7
T2 construct: Proteomes (mouse brain membrane fraction or cell lysates); from tissue; host or cells: mouse brain membrane fraction (or cell lysates, not specified)
T2 sequence (Q60963 22-440): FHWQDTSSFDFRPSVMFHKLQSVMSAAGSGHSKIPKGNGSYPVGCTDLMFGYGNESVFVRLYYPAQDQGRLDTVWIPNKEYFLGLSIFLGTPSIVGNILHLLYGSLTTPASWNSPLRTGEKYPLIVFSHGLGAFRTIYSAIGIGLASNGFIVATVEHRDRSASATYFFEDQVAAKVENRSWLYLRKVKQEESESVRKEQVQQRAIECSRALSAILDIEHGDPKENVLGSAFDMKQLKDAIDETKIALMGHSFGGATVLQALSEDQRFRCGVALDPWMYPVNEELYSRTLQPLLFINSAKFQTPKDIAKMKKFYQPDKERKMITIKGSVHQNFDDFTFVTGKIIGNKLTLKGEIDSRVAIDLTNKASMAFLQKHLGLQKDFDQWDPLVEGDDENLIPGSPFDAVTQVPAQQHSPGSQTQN
Summary of the method: as §1

FAAH = molecular target: T3, FAAH (Mus musculus, UniProt O08914); details: for inhibition at 1 µM: 1 μM inhibitor, read-out: % Inhibition at 1 μM, B = FAAH; for inhibition at 10 µM: 10 μM inhibitor, read-out: % Inhibition at 10 μM, B = FAAH; for IC50: mouse brain membrane fraction or cell lysates, 30 min preincubation at 37° C., read-out: Mouse (IC50 value, nM) FAAH
T3 construct: Proteomes (mouse brain membrane fraction or cell lysates); from tissue; host or cells: mouse brain membrane fraction (or cell lysates, not specified)
T3 sequence (O08914 1-579): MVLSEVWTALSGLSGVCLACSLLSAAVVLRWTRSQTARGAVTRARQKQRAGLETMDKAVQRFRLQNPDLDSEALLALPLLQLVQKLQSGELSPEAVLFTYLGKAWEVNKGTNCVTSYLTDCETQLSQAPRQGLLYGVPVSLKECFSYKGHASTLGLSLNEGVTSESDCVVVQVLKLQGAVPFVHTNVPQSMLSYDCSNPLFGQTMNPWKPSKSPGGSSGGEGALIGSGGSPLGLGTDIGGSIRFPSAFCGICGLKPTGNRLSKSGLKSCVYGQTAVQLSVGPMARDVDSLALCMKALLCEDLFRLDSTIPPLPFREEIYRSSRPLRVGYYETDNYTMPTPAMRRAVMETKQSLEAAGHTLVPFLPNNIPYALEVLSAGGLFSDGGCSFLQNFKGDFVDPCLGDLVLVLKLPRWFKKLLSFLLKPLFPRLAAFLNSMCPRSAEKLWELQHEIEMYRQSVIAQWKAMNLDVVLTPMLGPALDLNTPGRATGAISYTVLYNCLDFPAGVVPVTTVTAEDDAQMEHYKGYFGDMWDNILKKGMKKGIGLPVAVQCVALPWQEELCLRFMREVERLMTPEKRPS
Summary of the method: as §1

ABHD6 = molecular target: T4, ABHD6 (Mus musculus, UniProt Q8R2Y0); details: for inhibition at 1 µM: 1 μM inhibitor, read-out: % Inhibition at 1 μM, C = ABHD6; for inhibition at 10 µM: 10 μM inhibitor, read-out: % Inhibition at 10 μM, C = ABHD6; for IC50: mouse brain membrane fraction or cell lysates, 30 min preincubation at 37° C., read-out: Mouse (IC50 value, nM) ABHD6
T4 construct: Proteomes (mouse brain membrane fraction or cell lysates); from tissue; host or cells: mouse brain membrane fraction (or cell lysates, not specified)
T4 sequence (Q8R2Y0 1-336): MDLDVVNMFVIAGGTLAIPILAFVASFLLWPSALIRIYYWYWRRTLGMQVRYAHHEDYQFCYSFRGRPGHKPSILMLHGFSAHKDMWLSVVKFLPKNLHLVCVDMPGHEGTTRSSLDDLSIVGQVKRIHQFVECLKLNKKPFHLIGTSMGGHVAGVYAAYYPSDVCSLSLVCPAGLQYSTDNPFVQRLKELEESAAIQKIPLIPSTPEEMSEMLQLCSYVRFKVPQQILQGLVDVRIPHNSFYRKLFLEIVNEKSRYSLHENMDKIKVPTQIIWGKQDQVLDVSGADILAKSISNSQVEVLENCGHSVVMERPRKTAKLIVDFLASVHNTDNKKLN
Summary of the method: as §1

O=C(N1CCN(Cc2c(N3CCCC3)cccc2C(F)(F)F)CC1)n1cc(C(F)(F)F)cn1 [Example 110, (4-(2-(Pyrrolidin-1-yl)-6-(trifluoromethyl)benzyl)piperazin-1-yl)(4-(trifluoromethyl)-1H-pyrazol-1-yl)methanone]
inhibition at 1 µM (MAGL): > 75% | inhibition at 10 µM (MAGL): > 75% | IC50 (MAGL): < 100 nM | inhibition at 1 µM (PLA2G7): > 75% | inhibition at 10 µM (PLA2G7): > 75% | inhibition at 1 µM (FAAH): < 25% | inhibition at 10 µM (FAAH): > 75% | IC50 (FAAH): > 1000 nM | inhibition at 1 µM (ABHD6): > 75% | inhibition at 10 µM (ABHD6): > 75% | IC50 (ABHD6): < 100 nM

CC(C)c1cnn(C(=O)N2CCN(Cc3c(N4CCCC4)cccc3C(F)(F)F)CC2)c1 [Example 112, (4-Isopropyl-1H-pyrazol-1-yl)(4-(2-(pyrrolidin-1-yl)-6-(trifluoromethyl)benzyl)piperazin-1-yl)methanone]
inhibition at 1 µM (MAGL): < 25% | inhibition at 10 µM (MAGL): > 75% | inhibition at 1 µM (PLA2G7): < 25% | inhibition at 10 µM (PLA2G7): > 75% | inhibition at 1 µM (FAAH): < 25% | inhibition at 10 µM (FAAH): < 25% | inhibition at 1 µM (ABHD6): > 75% | inhibition at 10 µM (ABHD6): > 75% | IC50 (ABHD6): 100 to 1000 nM

O=C(N1CCN(Cc2ccc(C(F)(F)F)cc2N2CCCC2)CC1)n1cc(-c2ccccc2C(F)(F)F)cn1 [Example 115, (4-(2-(Pyrrolidin-1-yl)-4-(trifluoromethyl)benzyl)piperazin-1-yl)(4-(2-(trifluoromethyl)phenyl)-1H-pyrazol-1-yl)methanone]
inhibition at 1 µM (MAGL): < 25% | inhibition at 10 µM (MAGL): 25 to 75% | inhibition at 1 µM (PLA2G7): 25 to 75% | inhibition at 10 µM (PLA2G7): > 75% | inhibition at 1 µM (FAAH): < 25% | inhibition at 10 µM (FAAH): 25 to 75% | inhibition at 1 µM (ABHD6): > 75% | inhibition at 10 µM (ABHD6): 25 to 75% | IC50 (ABHD6): 100 to 1000 nM

O=C(N1CCN(Cc2ccc(C(F)(F)F)cc2N2CCCC2)CC1)n1cc(-c2ccc(C(F)(F)F)cc2)cn1 [Example 116, (4-(2-(Pyrrolidin-1-yl)-4-(trifluoromethyl)benzyl)piperazin-1-yl)(4-(4-(trifluoromethyl)phenyl)-1H-pyrazol-1-yl)methanone]
inhibition at 1 µM (MAGL): 25 to 75% | inhibition at 10 µM (MAGL): > 75% | inhibition at 10 µM (PLA2G7): > 75% | inhibition at 1 µM (FAAH): < 25% | inhibition at 10 µM (FAAH): < 25% | inhibition at 1 µM (ABHD6): > 75% | inhibition at 10 µM (ABHD6): > 75% | IC50 (ABHD6): > 1000 nM

Cc1ccccc1-c1cnn(C(=O)N2CCN(C(c3ccc(Cl)cc3)c3ccc(Cl)cc3)CC2)c1 [Example 122, (4-(Bis(4-chlorophenyl)methyl)piperazin-1-yl)(4-(o-tolyl)-1H-pyrazol-1-yl)methanone]
inhibition at 10 µM (MAGL): 25 to 75% | inhibition at 1 µM (PLA2G7): 25 to 75% | inhibition at 10 µM (PLA2G7): > 75% | inhibition at 10 µM (FAAH): < 25% | inhibition at 1 µM (ABHD6): < 25% | inhibition at 10 µM (ABHD6): > 75%

O=C(N1CCN(C(c2ccc(Cl)cc2)c2ccc(Cl)cc2)CC1)n1cc(-c2ccccc2C(F)(F)F)cn1 [Example 123, (4-(Bis(4-chlorophenyl)methyl)piperazin-1-yl)(4-(2-(trifluoromethyl)phenyl)-1H-pyrazol-1-yl)methanone]
inhibition at 10 µM (MAGL): 25 to 75% | inhibition at 1 µM (PLA2G7): < 25% | inhibition at 10 µM (PLA2G7): 25 to 75% | inhibition at 10 µM (FAAH): < 25% | inhibition at 1 µM (ABHD6): 25 to 75% | inhibition at 10 µM (ABHD6): > 75%

O=C(N1CCN(C(c2ccc(Cl)cc2)c2ccc(Cl)cc2)CC1)n1cc(-c2ccc(C(F)(F)F)cc2)cn1 [Example 124, (4-(Bis(4-chlorophenyl)methyl)piperazin-1-yl)(4-(4-(trifluoromethyl)phenyl)-1H-pyrazol-1-yl)methanone]
inhibition at 10 µM (MAGL): 25 to 75% | inhibition at 1 µM (PLA2G7): 25 to 75% | inhibition at 10 µM (PLA2G7): > 75% | inhibition at 10 µM (FAAH): < 25% | inhibition at 1 µM (ABHD6): > 75% | inhibition at 10 µM (ABHD6): > 75%

CCN(Cc1ccccc1OC)C(=O)n1cc(Cl)cn1 [Example 127, 4-Chloro-N-ethyl-N-(2-methoxybenzyl)-1H-pyrazole-1-carboxamide]
inhibition at 1 µM (MAGL): < 25% | inhibition at 10 µM (MAGL): > 75% | inhibition at 1 µM (PLA2G7): < 25% | inhibition at 10 µM (PLA2G7): < 25% | inhibition at 1 µM (FAAH): < 25% | inhibition at 10 µM (FAAH): > 75% | inhibition at 1 µM (ABHD6): < 25% | inhibition at 10 µM (ABHD6): > 75%

CCN(Cc1cccc(OC)c1)C(=O)n1cc(Cl)cn1 [Example 128, 4-Chloro-N-ethyl-N-(3-methoxybenzyl)-1H-pyrazole-1-carboxamide]
inhibition at 10 µM (MAGL): > 75% | IC50 (MAGL): > 1000 nM | inhibition at 10 µM (PLA2G7): < 25% | inhibition at 10 µM (FAAH): > 75% | IC50 (FAAH): 100 to 1000 nM | inhibition at 10 µM (ABHD6): > 75% | IC50 (ABHD6): > 1000 nM

CCN(Cc1ccc(OC)cc1)C(=O)n1cc(Cl)cn1 [Example 129, 4-Chloro-N-ethyl-N-(4-methoxybenzyl)-1H-pyrazole-1-carboxamide]
inhibition at 1 µM (MAGL): < 25% | inhibition at 10 µM (MAGL): > 75% | IC50 (MAGL): > 1000 nM | inhibition at 1 µM (PLA2G7): < 25% | inhibition at 10 µM (PLA2G7): < 25% | inhibition at 1 µM (FAAH): > 75% | inhibition at 10 µM (FAAH): > 75% | IC50 (FAAH): 100 to 1000 nM | inhibition at 1 µM (ABHD6): < 25% | inhibition at 10 µM (ABHD6): 25 to 75% | IC50 (ABHD6): > 1000 nM

CCN(Cc1ccccc1Cl)C(=O)n1cc(Cl)cn1 [Example 130, 4-Chloro-N-(2-chlorobenzyl)-N-ethyl-1H-pyrazole-1-carboxamide]
inhibition at 1 µM (MAGL): < 25% | inhibition at 1 µM (PLA2G7): < 25% | inhibition at 1 µM (FAAH): < 25% | inhibition at 1 µM (ABHD6): < 25%

CCN(Cc1ccc(Cl)cc1)C(=O)n1cc(Cl)cn1 [Example 131, 4-chloro-N-(4-chlorobenzyl)-N-ethyl-1H-pyrazole-1-carboxamide]
inhibition at 1 µM (MAGL): < 25% | IC50 (MAGL): > 1000 nM | inhibition at 1 µM (PLA2G7): < 25% | inhibition at 1 µM (FAAH): > 75% | IC50 (FAAH): < 100 nM | inhibition at 1 µM (ABHD6): < 25% | IC50 (ABHD6): > 1000 nM

CCN(Cc1ccccc1C)C(=O)n1cc(Cl)cn1 [Example 132, 4-Chloro-N-(2-methylbenzyl)-N-ethyl-1H-pyrazole-1-carboxamide]
inhibition at 1 µM (MAGL): < 25% | inhibition at 1 µM (PLA2G7): < 25% | inhibition at 1 µM (FAAH): < 25% | inhibition at 1 µM (ABHD6): < 25%

CCN(Cc1ccc(C)cc1)C(=O)n1cc(Cl)cn1 [Example 133, 4-Chloro-N-ethyl-N-(4-methylbenzyl)-1H-pyrazole-1-carboxamide]
inhibition at 1 µM (MAGL): < 25% | inhibition at 10 µM (MAGL): > 75% | IC50 (MAGL): > 1000 nM | inhibition at 1 µM (PLA2G7): < 25% | inhibition at 10 µM (PLA2G7): < 25% | inhibition at 1 µM (FAAH): > 75% | inhibition at 10 µM (FAAH): > 75% | IC50 (FAAH): < 100 nM | inhibition at 1 µM (ABHD6): < 25% | inhibition at 10 µM (ABHD6): > 75% | IC50 (ABHD6): > 1000 nM
